Test results published in patent US4087461A, “Anti-androgenic steroids” (The Johns Hopkins University, priority 1977, dated 1978).

Legend:
[1] = system: competition with testosterone at the target tissue; assay: study in castrate rats receiving testosterone propionate: prostatic weight; format: in vivo, male Sprague-Dawley rats (castrated); settings: estryne 12mg/kg i.p. and testosterone propionate 0.3mg daily for seven days; castrated 10 days prior
Method: To determine if the estryne competes with testosterone at the target tissue rats were orchiectomized under ether anesthesia via the scrotal route 10 days prior to treatment. Testosterone propionate 0.3 mg (0.2 ml sesame oil) was administered daily for 7 days subcutaneously. Estryne 12 mg/kg (0.2 ml propylene glycol) was given daily for 7 days interperitioneally. Control groups received either testosterone propionate (0.3 mg) or carrier oil daily for 7 days. The animals were sacrificed on the eighth day and the organs were weighed.
Animals castrated 10 days prior to treatment received both estryne (12mg/kg weight) and testosterone propionate (0.3mg) daily for seven days.

[2] = system: androgen biosynthesis stimulated by human chorionic gonadotropin; assay: study in hypophysectomized rats stimulated with human chorionic gonadotropin: ventral prostate weight; format: in vivo, hypophysectomized male Sprague-Dawley rats
Method: In order to assess the action of the estryne in the presence of exogenous stimulation of androgen synthesis, hypophysectomized male rats received estryne 3.0 mg (0.2 ml sesame oil) sc and/or human chorionic gonadotropin 2 units and 4 units (0.9% saline) sc daily for 7 days. Sacrifice and weighing of the organs was performed on the eighth day.
The wet weight of the ventral prostate was decreased (20-25%) in hypophysectomized animal receiving estryne (12mg/kg body weight) and HGG (2 units) as compared to controls receiving just HGG (2 units).

[3] = system: immature uterus; assay: study of estrogenic activity (uterine weight of immature mice); settings: 100 μg total dose over three days, sc
Method: The animals were housed in a temperature controlled room under a constant lighting schedule and maintained on a diet of Charles River Rat Formula and water ad libitum. The diet of the hypophy-sectomized animals was supplemented with organges.
On the fourth day the uteri were removed and weighed.
Thus, immature female mice received estryne at doses up to a maximum of 100 μg total dose over three days, and the wet weight of the uteri were determined.

C[C@]12CC[C@@H]3C(=O)CCC(=O)CC#CC[C@H]3[C@@H]1CCC2=O [Compound 1, 5,10-secoestr-5-yne-3,10,17-trione]
depression of prostatic weight [1]: No significant depression of prostatic weight
decrease in wet weight of the ventral prostate ([2]; estryne 12mg/kg body weight and HCG 2 units, vs controls receiving HCG 2 units only, 7 days): 20-25%
effect on ventral prostate weight at higher doses of HCG ([2]; higher doses of HCG, in words): less pronounced
stimulation of the immature uterus [3]: no stimulation of the immature uterus
